Assay results reported in US9586921B2, “Burdock fruit extract containing arctigenin at high content and process for producing same” (Kracie Pharma, Ltd., priority 2009, dated 2017).

Key:
[1] = test system: pancreas cancer cell line PANC-1; conditions: PANC-1, undernutrition condition; non-patent document 1; cited from earlier work
PSN-1 Xenografts = assay: Evaluation of the anticancer activity in the model animal of tumor (PSN-1 Xenografts); type: in vivo, nude mouse; conditions: PSN-1 xenograft, 50 μg per mouse by mouth five times a week, one month after beginning of dosage, FIG. 6
Procedure: (§1) [Test 3] (the Evaluation of the Anticancer Activity in the Model Animal of Tumor) (Method for Test) The subcutaneous dorsales of nude mouse (BALB-cAJ nu/nu; Nippon Kurea) which is the donor was inoculated the human pancreas cancer cell line, CAPAN-1 or PSN-1, and the obtained tumor mass of the donor mouse was transplanted into the subcutaneous dorsales of the recipient mouse to generate the model animal of tumor. […] The anticancer activity was evaluated by measuring the size of the tumor mass of subcutaneous dorsales sequentially.

CAPAN-1 Xenografts = assay: Evaluation of the anticancer activity in the model animal of tumor (CAPAN-1 Xenografts); type: in vivo, nude mouse; conditions: CAPAN-1 xenograft, 50 μg per mouse by mouth five times a week, one month after beginning of dosage, FIG. 5
Procedure: as §1

PSN-1 = assay: Cytotoxic evaluation using the cultured cell (WST-8 viability), PSN-1; type: cell-based, human; conditions: PSN-1, DMEM (normal nutritional condition) and NDM (nutrient starvation)
Procedure: (§2) [Test 2] (Cytotoxic Evaluation Using the Cultured Cell)
(§3) The pancreas cancer cell line, CAPAN-1, PANC-1 and PSN-1 were plated to the 96 well plate, and they were pre-cultured in DMEM culture media in 37° C., 5% CO2 and 95% Air under normal nutritional condition for 24 hours. After washing these cells with PBS, the extracts which were extracted by the different methods in DMEM culture media (ending D in the graph) which is normal nutritional condition and in NDM culture media (ending I in the graph) which are a nutrient starvation condition (Example 2 and comparative example 2 in the graph) were added to each well including constant concentration of arctigenin, and incubated for 24 hours. The cells were washed in PBS again, 100 μL of DMEM culture media including 10% WST-8 was added to be reacted for two hours and measured the absorbance of 450 nm by the microplate reader, and viability of these cells were evaluated.

PANC-1 = assay: Cytotoxic evaluation using the cultured cell (WST-8 viability), PANC-1; type: cell-based; conditions: PANC-1, DMEM (normal nutritional condition) and NDM (nutrient starvation)
Procedure: as §2, §3

CAPAN-1 = assay: Cytotoxic evaluation using the cultured cell (WST-8 viability), CAPAN-1; type: cell-based, human; conditions: CAPAN-1, DMEM (normal nutritional condition) and NDM (nutrient starvation)
Procedure: as §2, §3

| SMILES | effect in screen for release of viability of tumor cells in the undernutrition condition [1] | antitumor effect (size of the tumor mass) (PSN-1 Xenografts) | antitumor effect (size of the tumor mass) (CAPAN-1 Xenografts) | anticancer activity (PSN-1) | anticancer activity (PANC-1) | anticancer activity (CAPAN-1) |
| --- | --- | --- | --- | --- | --- | --- |
| COc1cc(C[C@H]2C(=O)OC[C@@H]2Cc2ccc(OC)c(OC)c2)ccc1O [arctigenin] | effective | antitumor effect was also obtained | antitumor effect was also obtained | – | – | – |
| COc1ccc(C[C@H]2COC(=O)[C@@H]2Cc2ccc(O[C@@H]3O[C@H](CO)[C@@H](O)[C@H](O)[C@H]3O)c(OC)c2)cc1OC [arctiin] | – | – | – | in neither condition | in neither condition | in neither condition |
